Starred links: 1 amine or outer side, 2 acyl side, 3 side chain; linkers in the order of their positions; H or OH if unused. Positions of bridges follow the written chain, without caps; N, C: chain ends. Non-standard residues stand in square brackets, D forms with d. Residues, ends and D or L forms follow the SMILES beside them. *: point of attachment. hPhe(3-Cl-4-CF3) = N[C@@H](CCc1ccc(C(F)(F)F)c(Cl)c1)C(=O)O; NMePhe(4-Me) = CN[C@@H](Cc1ccc(C)cc1)C(=O)O; NMedβ3hAla = C[C@H](CC(=O)[*:2])N(C)[*:1]; NMeGly(cPent) = CN[C@H](C(=O)O)C1CCCC1; NMe3Pal = CN[C@@H](Cc1cccnc1)C(=O)O; NMeCha = CN[C@@H](CC1CCCCC1)C(=O)O; Hyp = O=C(O)[C@@H]1C[C@@H](O)CN1; NMeAhp(2) = CCCCC[C@H](NC)C(=O)O; NMeChg = CN[C@H](C(=O)O)C1CCCCC1; NMeI = CC[C@H](C)[C@H](NC)C(=O)O; NMeD = CN[C@@H](CC(=O)O)C(=O)O; NMeL = CN[C@@H](CC(C)C)C(=O)O; NMeNle = CCCC[C@H](NC)C(=O)O; NMeV = CN[C@H](C(=O)O)C(C)C; NMeS = CN[C@@H](CO)C(=O)O; Morpholide = C1CN(*)CCO1; NMeA = CN[C@@H](C)C(=O)O; Piperidide = C1CCN(*)CC1; Pyrrolidide = C1CCN(*)C1; dNMeA = CN[C@H](C)C(=O)O; Ac5c = NC1(C(=O)O)CCCC1; Aze = O=C(O)[C@@H]1CCN1; Ac4c = NC1(C(=O)O)CCC1; Cyclopropyl = C1CC1*; Sar = CNCC(=O)O; Propyl = CCC*
Tested on: Human pancreatic cancer cell line AsPC-1
Assay: Measurement of AsPC-1 cell growth inhibition (AsPC-1 CGI)
Type: cell-based
Details: 96 h
Summary of the method: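 AsPC-1 cells in 15% FBS RPMI-1640 were exposed to test compound for 96 hours at 37° C, with CellTiter-Glo as endpoint.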

Compound	IC50
CC[C@H](C)[C@@H]1NC(=O)[C@H](CC(C)C)N(C)C(=O)C[C@@H](C(=O)N2CCCCC2)N(C)C(=O)[C@H](C(C)C)N(C)C(=O)C2(CCC2)NC(=O)[C@@H]2CCCN2C(=O)[C@H](CCc2ccc(C(F)(F)F)c(Cl)c2)NC(=O)CN(C)C(=O)[C@H](CC2CCCCC2)N(C)C(=O)[C@@H]2CCN2C(=O)[C@H](C)N(C)C1=O [Compound 1672] ([NMeL]I[NMeA][Aze][NMeCha][Sar][hPhe(3-Cl-4-CF3)]P[Ac4c][NMeV][NMeD]-Piperidide; lactam N-11)	100 to 500 nM
CC[C@H](C)[C@@H]1NC(=O)[C@H](CC(C)C)N(C)C(=O)C[C@@H](C(=O)N(C)C)N(C)C(=O)[C@H](C2CCCCC2)N(C)C(=O)C2(CCCC2)NC(=O)[C@@H]2CCCN2C(=O)[C@H](CCc2ccc(C(F)(F)F)c(Cl)c2)NC(=O)CN(C)C(=O)[C@H](CC2CCCCC2)N(C)C(=O)[C@@H]2CCN2C(=O)[C@H](C)N(C)C1=O [Compound 1675] ([NMeL]I[NMeA][Aze][NMeCha][Sar][hPhe(3-Cl-4-CF3)]P[Ac5c][NMeChg][NMeD]-NMe2; lactam N-11)	20 to 50 nM
CC[C@H](C)[C@@H]1NC(=O)[C@H](CC(C)C)N(C)C(=O)C[C@@H](C(=O)N2CCCC2)N(C)C(=O)[C@H](C2CCCC2)N(C)C(=O)C2(CCCC2)NC(=O)[C@@H]2CCCN2C(=O)[C@H](CCc2ccc(C(F)(F)F)c(Cl)c2)NC(=O)CN(C)C(=O)[C@H](CC2CCCCC2)N(C)C(=O)[C@@H]2CCN2C(=O)[C@H](C)N(C)C1=O [Compound 1679] ([NMeL]I[NMeA][Aze][NMeCha][Sar][hPhe(3-Cl-4-CF3)]P[Ac5c][NMeGly(cPent)][NMeD]-Pyrrolidide; lactam N-11)	20 to 50 nM
CC[C@H](C)[C@@H]1NC(=O)[C@H](CC(C)C)N(C)C(=O)C[C@@H](C(=O)N(C)C)N(C)C(=O)[C@H](C2CCCCC2)N(C)C(=O)C2(CCCC2)NC(=O)[C@@H]2CCCN2C(=O)[C@H](CCc2ccc(C(F)(F)F)c(Cl)c2)NC(=O)CN(C)C(=O)[C@H](Cc2ccc(C)cc2)N(C)C(=O)[C@@H]2CCN2C(=O)[C@H](C)N(C)C1=O [Compound 1685] ([NMeL]I[NMeA][Aze][NMePhe(4-Me)][Sar][hPhe(3-Cl-4-CF3)]P[Ac5c][NMeChg][NMeD]-NMe2; lactam N-11)	20 to 50 nM
CC[C@H](C)[C@@H]1NC(=O)[C@H](CC(C)C)N(C)C(=O)C[C@@H](C(=O)N2CCCC2)N(C)C(=O)[C@H](C2CCCCC2)N(C)C(=O)C2(CCCC2)NC(=O)[C@H](Cc2cccnc2)N(C)C(=O)[C@H](CCc2ccc(C(F)(F)F)c(Cl)c2)NC(=O)CN(C)C(=O)[C@H](CC2CCCCC2)N(C)C(=O)CN(C)C(=O)CN(C)C1=O [Compound 1693] ([NMeL]I[Sar][Sar][NMeCha][Sar][hPhe(3-Cl-4-CF3)][NMe3Pal][Ac5c][NMeChg][NMeD]-Pyrrolidide; lactam N-11)	100 to 500 nM
CCCCC[C@H]1C(=O)N[C@@H]([C@@H](C)CC)C(=O)N(C)[C@@H](C)C(=O)N2CC[C@H]2C(=O)N(C)[C@@H](CC2CCCCC2)C(=O)N(C)CC(=O)N[C@@H](CCc2ccc(C(F)(F)F)c(Cl)c2)C(=O)N2CCC[C@H]2C(=O)NC2(CCCC2)C(=O)N(C)[C@@H](C(C)C)C(=O)N(C)[C@H](C(=O)N2CCCCC2)CC(=O)N1C [Compound 1705] ([NMeAhp(2)]I[NMeA][Aze][NMeCha][Sar][hPhe(3-Cl-4-CF3)]P[Ac5c][NMeV][NMeD]-Piperidide; lactam N-11)	100 to 500 nM
CCCC[C@H]1C(=O)N(C)CC(=O)N[C@@H](CCc2ccc(C(F)(F)F)c(Cl)c2)C(=O)N2CCC[C@H]2C(=O)NC2(CCCC2)C(=O)N(C)[C@@H](C(C)C)C(=O)N(C)[C@H](C(=O)N2CCCCC2)CC(=O)N(C)[C@@H](CC(C)C)C(=O)N[C@@H]([C@@H](C)CC)C(=O)N(C)[C@@H](C)C(=O)N2CC[C@H]2C(=O)N1C [Compound 1712] ([NMeL]I[NMeA][Aze][NMeNle][Sar][hPhe(3-Cl-4-CF3)]P[Ac5c][NMeV][NMeD]-Piperidide; lactam N-11)	100 to 500 nM
CC[C@H](C)[C@@H]1NC(=O)[C@H](CC(C)C)N(C)C(=O)C[C@@H](C)N(C)C(=O)[C@H](C2CCCC2)N(C)C(=O)C2(CCCC2)NC(=O)[C@@H]2CCCN2C(=O)[C@H](CCc2ccc(C(F)(F)F)c(Cl)c2)NC(=O)CN(C)C(=O)[C@H](CC2CCCCC2)N(C)C(=O)[C@@H]2CCN2C(=O)[C@H](C)N(C)C1=O [Compound 1717] (cyclo([Ac5c][NMeGly(cPent)][NMedβ3hAla][NMeL]I[NMeA][Aze][NMeCha][Sar][hPhe(3-Cl-4-CF3)]P))	50 to 100 nM
CC[C@H](C)[C@@H]1NC(=O)[C@H](CC(C)C)N(C)C(=O)C[C@@H](C(=O)N2CCCCC2)N(C)C(=O)[C@H]([C@@H](C)CC)N(C)C(=O)C2(CCCC2)NC(=O)[C@@H]2CCCN2C(=O)[C@H](CCc2ccc(C(F)(F)F)c(Cl)c2)NC(=O)CN(C)C(=O)[C@H](CC2CCCCC2)N(C)C(=O)[C@@H]2CCN2C(=O)[C@H](C)N(C)C1=O [Compound 1722] ([NMeL]I[NMeA][Aze][NMeCha][Sar][hPhe(3-Cl-4-CF3)]P[Ac5c][NMeI][NMeD]-Piperidide; lactam N-11)	20 to 50 nM
CC[C@H](C)[C@@H]1NC(=O)[C@H](CC(C)C)N(C)C(=O)C[C@@H](C(=O)N2CCCCC2)N(C)C(=O)[C@H]([C@@H](C)CC)N(C)C(=O)C2(CCCC2)NC(=O)[C@@H]2CCCN2C(=O)[C@H](CCc2ccc(C(F)(F)F)c(Cl)c2)NC(=O)CN(C)C(=O)[C@H](Cc2ccc(C)cc2)N(C)C(=O)[C@@H]2CCN2C(=O)[C@H](C)N(C)C1=O [Compound 1727] ([NMeL]I[NMeA][Aze][NMePhe(4-Me)][Sar][hPhe(3-Cl-4-CF3)]P[Ac5c][NMeI][NMeD]-Piperidide; lactam N-11)	20 to 50 nM
CC[C@H](C)[C@@H]1NC(=O)[C@H](CC(C)C)N(C)C(=O)C[C@@H](C(=O)N2CCCCC2)N(C)C(=O)[C@H](C(C)C)N(C)C(=O)C2(CCCC2)NC(=O)[C@@H]2CCCN2C(=O)[C@H](CCc2ccc(C(F)(F)F)c(Cl)c2)NC(=O)CN(C)C(=O)[C@H](C(C)C)N(C)C(=O)[C@@H]2CCN2C(=O)[C@H](C)N(C)C1=O [Compound 1737] ([NMeL]I[NMeA][Aze][NMeV][Sar][hPhe(3-Cl-4-CF3)]P[Ac5c][NMeV][NMeD]-Piperidide; lactam N-11)	100 to 500 nM
CCO[C@@H]1C[C@H]2C(=O)NC3(CCCC3)C(=O)N(C)[C@@H](CC(C)C)C(=O)N(C)[C@H](C(=O)N3CCCC3)CC(=O)N(C)[C@@H](CC(C)C)C(=O)N[C@@H]([C@@H](C)CC)C(=O)N(C)CC(=O)N(C)CC(=O)N(C)[C@@H](CC3CCCCC3)C(=O)N(C)CC(=O)N[C@@H](CCc3ccc(C(F)(F)F)c(Cl)c3)C(=O)N2C1 [Compound 1748] ([NMeL]I[Sar][Sar][NMeCha][Sar][hPhe(3-Cl-4-CF3)][Hyp](Et)[Ac5c][NMeL][NMeD]-Pyrrolidide; lactam N-11)	50 to 100 nM
CC[C@H](C)[C@@H]1NC(=O)[C@H](CC(C)C)N(C)C(=O)C[C@@H](C(=O)N2CCOCC2)N(C)C(=O)[C@H](C(C)C)N(C)C(=O)C2(CCCC2)NC(=O)[C@@H]2CCCN2C(=O)[C@H](CCc2ccc(C(F)(F)F)c(Cl)c2)NC(=O)CN(C)C(=O)[C@H](CC2CCCCC2)N(C)C(=O)[C@@H]2CCN2C(=O)CN(C)C1=O [Compound 1758] ([NMeL]I[Sar][Aze][NMeCha][Sar][hPhe(3-Cl-4-CF3)]P[Ac5c][NMeV][NMeD]-Morpholide; lactam N-11)	100 to 500 nM
CCCOC[C@H]1C(=O)N[C@@H]([C@@H](C)CC)C(=O)N(C)[C@@H](C)C(=O)N2CC[C@H]2C(=O)N(C)[C@@H](CC2CCCCC2)C(=O)N(C)CC(=O)N[C@@H](CCc2ccc(C(F)(F)F)c(Cl)c2)C(=O)N2CCC[C@H]2C(=O)NC2(CCCC2)C(=O)N(C)[C@@H](C(C)C)C(=O)N(C)[C@H](C(=O)N2CCCCC2)CC(=O)N1C [Compound 1763] ([NMeS](Propyl)I[NMeA][Aze][NMeCha][Sar][hPhe(3-Cl-4-CF3)]P[Ac5c][NMeV][NMeD]-Piperidide; lactam N-11)	100 to 500 nM
CC[C@H](C)[C@@H]1NC(=O)[C@H](COC2CC2)N(C)C(=O)C[C@@H](C(=O)N2CCCCC2)N(C)C(=O)[C@H](C(C)C)N(C)C(=O)C2(CCCC2)NC(=O)[C@@H]2CCCN2C(=O)[C@H](CCc2ccc(C(F)(F)F)c(Cl)c2)NC(=O)CN(C)C(=O)[C@H](CC2CCCCC2)N(C)C(=O)[C@@H]2CCN2C(=O)[C@H](C)N(C)C1=O [Compound 1764] ([NMeS](Cyclopropyl)I[NMeA][Aze][NMeCha][Sar][hPhe(3-Cl-4-CF3)]P[Ac5c][NMeV][NMeD]-Piperidide; lactam N-11)	100 to 500 nM
CC[C@H](C)[C@@H]1NC(=O)[C@H](C(C)C)N(C)C(=O)C[C@@H](C(=O)N2CCCCC2)N(C)C(=O)[C@H](C(C)C)N(C)C(=O)C2(CCCC2)NC(=O)[C@@H]2CCCN2C(=O)[C@H](CCc2ccc(C(F)(F)F)c(Cl)c2)NC(=O)CN(C)C(=O)[C@H](CC2CCCCC2)N(C)C(=O)[C@@H]2CCN2C(=O)[C@H](C)N(C)C1=O [Compound 1767] ([NMeV]I[NMeA][Aze][NMeCha][Sar][hPhe(3-Cl-4-CF3)]P[Ac5c][NMeV][NMeD]-Piperidide; lactam N-11)	100 to 500 nM
CC[C@H](C)[C@@H]1NC(=O)[C@H](C)N(C)C(=O)C[C@@H](C)N(C)C(=O)[C@H](C(C)C)N(C)C(=O)C2(CCCC2)NC(=O)[C@@H]2CCCN2C(=O)[C@H](CCc2ccc(C(F)(F)F)c(Cl)c2)NC(=O)[C@@H](C)N(C)C(=O)[C@H](CC2CCCCC2)N(C)C(=O)[C@@H]2CCN2C(=O)[C@H](C)N(C)C1=O [Compound 1773] (cyclo([Ac5c][NMeV][NMedβ3hAla][NMeA]I[NMeA][Aze][NMeCha][dNMeA][hPhe(3-Cl-4-CF3)]P))	100 to 500 nM
CCO[C@@H]1C[C@H]2C(=O)NC3(CCCC3)C(=O)N(C)[C@@H](CC(C)C)C(=O)N(C)[C@H](C(=O)N3CCOCC3)CC(=O)N(C)[C@@H](CC(C)C)C(=O)N[C@@H]([C@@H](C)CC)C(=O)N(C)CC(=O)N(C)CC(=O)N(C)[C@@H](CC3CCCCC3)C(=O)N(C)CC(=O)N[C@@H](CCc3ccc(C(F)(F)F)c(Cl)c3)C(=O)N2C1 [Compound 1785] ([NMeL]I[Sar][Sar][NMeCha][Sar][hPhe(3-Cl-4-CF3)][Hyp](Et)[Ac5c][NMeL][NMeD]-Morpholide; lactam N-11)	50 to 100 nM

— patent publication US12371454B2, “Cyclic peptide compound having Kras inhibitory action” (priority 2019, dated 2025)
